Laboratory results reported in patent US20110009332A1, “Therapeutic Treatment Of Wounds” (SOUTHWEST RESEARCH INSTITUTE, priority 2009, published 2011).
Several values for one entry are separate records, joined by “and”; a condition that tells them apart may be missing. Equal values may be shown once. Where a SMILES comes first, the peptide text is derived from it. The star is where a group is joined. Cbz = O=C(OCc1ccccc1)*; OtBu = CC(C)(C)O*

Experiments:
rat skin = experiment: Tensile strength of rat skin after 28 days of treatment (Example 2); type: in vivo, rats; set-up: Tensile strength of rat skin, Mean: unit not given here; conditions: for Tensile strength of rat skin, individual samples: 100 μl per wound site daily for 5 days, samples 1-5, in N/mm²; for Tensile strength of rat skin, individual samples / Tensile strength of rat skin, Mean: after 28 days; for Tensile strength of rat skin, Mean: control mean 3.12114
Description: Testing of PS-1 was performed in rats and was provided at 1% and 5% in DMSO. The rats received 100 μl per wound site. The compound was administered daily for 5 days and skin was collected at 7 days, 14 days and 28 days. The biomechanical tensile strength of the skin was measured. Table 2 illustrates the testing data after 28 days for a control sample without treatment, 1% PS-1 in DMSO and 5% PS-1 in DMSO.

[1] = system: TGF-β1 protein expression in human dermal fibroblast cells; experiment: TGF-β1 protein expression in normal and PMA-challenged human dermal fibroblasts; type: cell-based; conditions: PS-1 0 nM to 10000 nM
Description: Cyto-toxicity analysis was performed to illustrate the inhibition of TGF-131 in human dermal fibroblasts. Both normal human dermal fibroblast cells (i.e., undamaged or non-wounded skin cells) and challenged (damaged) human dermal fibroblast cells were treated with concentrations of PS-1 ranging from 0 nM to 10000 nM and the effect of the various PS-1 concentrations on the normal and challenged cells was measured. It is noted that the challenged human dermal fibroblast cells were treated in vitro with 10 nM of phorbol 12-myristate 13-acetate (PMA) to simulate wounding. […] FIG. 11 illustrates TGF-131 protein expression upon addition of PS-1 in cells challenged by the addition of the 10 nM of PMA.

[2] = system: incisional wounds of Sprague-Dawley rats; experiment: Incisional wound healing model: tensometry and wound thickness; type: in vivo
From the text: (§1) Using a standard incisional wound healing model, two 6 cm linear incisions were made through the panniculus carnosum on the dorsal aspect of 10 to 12 week old male Sprague-Dawley rats 1 centimeter on either side of midline running cephalid to caudal using a prefabricated template. Three surgical clips were used to close the incision and serve as guides for sectioning on harvest day.
(§2) Rats were randomly assigned to 1 of 3 treatment groups, indentified by the treatment administered to the wound located on the left. All wounds located on the right, regardless of treatment group, received vehicle (100% DMSO) as a control. […] Treatment was administered by applying 100 micro liters into (at time of closure) or onto the wound every 24 hours for the first 48 hours beginning at the time of wound closure, totaling 3 doses per wound.
(§3) On days 7, 14 and 28 post-wounding, the rats were euthanized and the entire dorsal skin excised. Four 8 mm sample strips were cut perpendicular to the wounds, to incorporate both the treated wound and the adjacent vehicle wound. The sample strips were then cut in half, equidistance from the two parallel wounds, yielding a total of four samples per wound, and yielding a compliment vehicle wound for each treated sample. One cephalic and one caudle sample were immediately prepared for histology, with the remaining two strips immediately prepared for tensometry.
Prior to sample loading for testing by tensometry, the underlying subcutaneous fascia was removed to the level of the panniculus carnosum using sharp dissection, following a natural dissection plane. For the day 28 wounds, the 8 mm samples were divided into 4 mm strips prior to loading secondary to slippage issues encountered during the pilot study. Samples were loaded into a Lloyd Instrument materials testing system (model LRX plus, Fareham, Hampshire, UK) with a 50 N load cell, with the wounds perpendicular to the grips and pulled at a rate of 200 mm/min. Wound thickness, just superficial to epithelium and just deep to panniculus carnosum, was measured at the time of testing with digital calipers (Absolute Digimatic Caliper, Mitutoyo, Kawasaki, Kanagawa, Japan). The wound width was measured at a preload of 0.5N by obtaining the correlating still frame image from a hands free mounted video camera (HDR-SR1 Handycam® camcorder, Sony, San Diego, Calif.). These two measurements were then used to calculate the cross sectional area of the wounds and the subsequent tensile strength (N/mm^2).
(§4) A paired student's t-test was used for statistical comparisons between adjacent wounds. A tukey's comparison was used for statistical comparison of wounds between different rats. A Kruskal-Wallis test was used for comparing graded histology. A Chi square was used to determine statistical meaning of epithelial necrosis.

[3] = system: incisional wounds of Sprague-Dawley rats; experiment: Incisional wound healing model: histology; type: in vivo; conditions: for Overall Dermal Collagen Response: histology score; for wounds presenting with some degree of epithelial hyperplasia: control rats 60%
From the text: as §1, §2, §3
Histological samples were fixed in 10% formalin, routinely processed, embedded in paraffin, and sectioned at approximately 5 μm. Cross sections of skin were stained with hematoxylin and eosin (H&E) and Masson's Trichrome using routine methods. All slides were subjectively evaluated on an Olympus BX40 microscope (Olympus America, Center Valley, Pa.) by a board-certified veterinary pathologist blinded to the treatment groups. The following parameters were determined for each sample: (1) collagen density (0=no mature collagen, 1=loose, 2=intermediate, 3=dense); (2) collagen maturity (1=immature, 2=intermediate, 3=mature); (3) amount and type of inflammation present in the dermis (0=none, 1=minimal, 2=mild, 3=moderate, 4=severe); (4) epithelial hyperplasia (0=none, 1=minimal, 2=mild, 3=moderate, 4=severe); (5) amount of epidermal necrosis over wound (0=0%, 1=25%, 2=50%, 3=75%, 4=100). Images were captured using an Olympus BX41 microscope (Olympus America, Center Valley, Pa.) and an Olympus DP71 digital camera (Olympus America, Center Valley, Pa.). Captured images of Masson's Trichrome sections under a 4× objective were uploaded into ImageJ (NIH) in order to calculate the cross sectional area of immature collagen within day 28 wounds. For statistical purposes, samples were averaged to provide a single score in each parameter per wound.
as §4

histology finding in the subcutaneous tissue beneath the panniculus carnosum (in words) ([3]; wounds receiving direct administration of the PI, seemingly dose dependent): foreign body reaction
Compound: CC[C@H](C)[C@H](NC(=O)OCc1ccccc1)C(=O)N[C@@H](CCC(=O)OC(C)(C)C)C(=O)N[C@@H](C)C(=O)N[C@H](C=O)CC(C)C [PS-1, Z-Ile-Glu(OBu^t)-Ala-Leu-H] (Cbz-IE(OtBu)AL-aldehyde)
Tensile strength of rat skin, individual samples (rat skin; 1% PS-1 in DMSO): 3.707 and 3.47 and 3.655 and 4.169 and 4.476
Tensile strength of rat skin, Mean (rat skin; 1% PS-1 in DMSO): 3.895
Tensile strength of rat skin, individual samples (rat skin; 5% PS-1 in DMSO): 4.067 and 4.379 and 3.805 and 5.042 and 5.192
strength of rat skin tissue (in words) (rat skin; 5% PS-1 in DMSO, 28 days, FIG. 6): relatively stronger tissue
Tensile strength of rat skin, Mean (rat skin; 5% PS-1 in DMSO): 4.497
TGF-β1 protein expression (in words) ([1]; cells challenged with 10 nM PMA, FIG. 11): reduced TGF-β1 protein expression to similar levels seen in normal cells
TGF-β1 protein expression (in words) ([1]; normal human dermal fibroblast cells, FIG. 10): relatively little change in TGF-β1 protein expression
normalization of wound thickness (in words) ([2]; after PS-1 treatment): normalized faster
tensile strength vs untreated wounds (in words) ([2]; day 7 post-wounding, high dose (5% w/w in DMSO), p=0.0223): significantly lower
tensile strength vs untreated wounds (in words) ([2]; day 7 post-wounding, low dose (1% w/w in DMSO), p=0.0121): significantly lower
tensile strength, differences between wounds (in words) ([2]; day 14 post-wounding, all wounds): no significant differences in tensile strength
wound thickness vs untreated control wounds (in words) ([2]; day 28, 1% PI, p=0.057): thinner than untreated control wounds, but just lacked significance
wound thickness vs untreated control wounds (in words) ([2]; day 28, 5% PI, p=0.013): significantly thinner
tensile strength vs untreated wounds (in words) ([2]; day 28 post-wounding, 1% PI): no significant difference
tensile strength vs untreated wounds (in words) ([2]; day 28 post-wounding, 5% PI, p=0.0269): significantly increased tensile strength
Overall Dermal Collagen Response ([3]; PS-1 1% treated wounds, Day 7, control 0.8 ± 0.3): 0.8 ± 0.3
Overall Dermal Collagen Response ([3]; PS-1 1% treated wounds, Day 14, control 1.9 ± 0.3): 2.1 ± 0.3
Overall Dermal Collagen Response ([3]; PS-1 1% treated wounds, Day 28, control 2.6 ± 0.5): 2.9 ± 0.3
Overall Dermal Collagen Response ([3]; PS-1 5% treated wounds, Day 7, control 0.8 ± 0.3): 0.7 ± 0.3
Overall Dermal Collagen Response ([3]; PS-1 5% treated wounds, Day 14, control 1.9 ± 0.3): 2.0 ± 0.0
Overall Dermal Collagen Response ([3]; PS-1 5% treated wounds, Day 28, control 2.6 ± 0.5): 2.8 ± 0.3
accumulation of neutrophils in the dermis (in words) ([3]; day 14, most notable in rats receiving 1% PI): nearly extinct
wounds presenting with some degree of epithelial hyperplasia ([3]; day 28, 1% PI rats): 8 % of wounds
wounds presenting with some degree of epithelial hyperplasia ([3]; day 28, 5% PI rats): 20 % of wounds
macrophage and lymphocyte accumulates (in words) ([3]; day 28, most notably low dose rat wounds, FIG. 20): continued to decline
